Values of other authors in publication PMC10649714, “Development and Identification of Novel α-Glucosidase Inhibitory Peptides from Mulberry Leaves” (Foods, 2023).
Where two headings read alike, the source gives them in different places. Each block holds one compound with its values, some of them ahead of it.

Key:
[1] = system: α-glucosidase (PDB ID: 5ZCE)
Text: All hydrogen bonds in this complex with a length less than 3.5 Å were considered to make a close contact, and the binding energy obtained was −8.78 kcal/mol. […] Along with other interaction forces, the binding energy was −8.75 kcal/mol. In addition, […] formed seven hydrogen bonds a ...

[2] = target: α-glucosidase (Saccharomyces cerevisiae, UniProt P53341); conditions: for α-glucosidase inhibition in vitro: in words, ref 9 (LDLQR, AGGFR, LDNFR), 11 (RVPSLM, KLPGF), ref 12 (SEDSSEVDIDLGNLG), ref 13 (TTGGKGGK), ref 14 (KETTTIVR)
Sequence of α-glucosidase (P53341 whole entry, the tested form may be a part): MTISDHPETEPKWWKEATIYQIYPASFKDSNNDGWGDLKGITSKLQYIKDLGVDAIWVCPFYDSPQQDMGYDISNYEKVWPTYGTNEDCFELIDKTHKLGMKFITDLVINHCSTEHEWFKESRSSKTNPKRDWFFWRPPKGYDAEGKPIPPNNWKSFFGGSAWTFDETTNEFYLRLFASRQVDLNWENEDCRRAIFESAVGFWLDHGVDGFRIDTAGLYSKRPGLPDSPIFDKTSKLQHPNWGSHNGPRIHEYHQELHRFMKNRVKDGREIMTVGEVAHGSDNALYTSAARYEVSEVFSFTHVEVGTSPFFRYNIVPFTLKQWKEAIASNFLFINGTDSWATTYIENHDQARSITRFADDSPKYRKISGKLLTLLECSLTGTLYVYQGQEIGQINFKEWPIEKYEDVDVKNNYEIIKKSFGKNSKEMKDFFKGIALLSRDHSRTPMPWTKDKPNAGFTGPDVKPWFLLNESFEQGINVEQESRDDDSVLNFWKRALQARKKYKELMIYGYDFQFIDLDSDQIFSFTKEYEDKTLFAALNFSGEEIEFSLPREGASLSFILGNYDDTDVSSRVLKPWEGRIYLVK
Text: Bioactive peptides are composed of 2–20 amino acids. These peptides have no obvious activity in the macromolecular state but show anti-diabetes, anti-hypertension, anti-inflammation, anti-cancer, and other biological activities after degradation. Enzymatic hydrolysis is commonly employed in both research and industrial settings for the preparation of bioactive peptides due to its favorable attributes, including gentle reaction conditions and the ability to effectively regulate the reaction process. […] Although the precise chemical responsible for this benefit is unknown, the ancient Chinese medicinal book Qi Min Yao Shu referenced the effect of mulberry leaf as tr ... || To further verify the synthesis of peptides, in vitro activity tests were carried out. […] […].

[3] = Binglangjiang buffalo casein peptides
[4] = Ginkgo biloba seed protein peptides

Compound: C[C@@H]1O[C@@H](O[C@H]2C(=O)c3c(O)cc(O)cc3O[C@@H]2c2ccc(O)c(O)c2)[C@H](O)[C@H](O)[C@H]1O [astilbin]
- binding sites with α-glucosidase [1]: ASP-60, ASP-199, HIS-203, GLN-256, and GLN-328

Compound: O=c1c(O)c(-c2ccc(O)cc2O)oc2cc(O)cc(O)c12 [morin]
- binding sites with α-glucosidase [1]: ASP-60, ASP-199, HIS-203, GLN-256, and GLN-328

Compound: O=C(CCc1ccc(O)cc1)c1c(O)cc(O[C@@H]2O[C@H](CO)[C@@H](O)[C@H](O)[C@H]2O)cc1O [trilobatin]
- binding sites with α-glucosidase [1]: ASP-60, ASP-199, HIS-203, GLN-256, and GLN-328

Compound: KETTTIVR [spicy wood seed protein-derived peptide]
- α-glucosidase inhibition in vitro [2]: excellent

Compound: LDLQR [wheat germ peptide]
- α-glucosidase inhibition in vitro [2]: excellent
- IC50 ratio of peptide to acarbose ([2]; wheat germ peptides): 2.52

Compound: MPGPPSD [peptide from Ginkgo biloba seed protein]
- IC50 ratio of peptide to acarbose [2, 4]: 2.54

Compound: SEDSSEVDIDLGNLG [sericin-derived peptide]
- α-glucosidase inhibition in vitro [2]: excellent

Compound: TKVIPYVRYL [Binglangjiang buffalo casein peptide]
- IC50 ratio of peptide to acarbose [2, 3]: approximately 2.5

Compound: VPKIPPP [peptide from Ginkgo biloba seed protein]
- IC50 ratio of peptide to acarbose [2, 4]: 3.89

Compound: YLGYLEQLLR [Binglangjiang buffalo casein peptide]
- IC50 ratio of peptide to acarbose [2, 3]: approximately 2.5

The next lines start with the values.

- α-glucosidase inhibition in vitro [2]: excellent
- IC50 ratio of peptide to acarbose ([2]; wheat germ peptides): 2.54
Compound: AGGFR [wheat germ peptide]

- IC50 ratio of peptide to acarbose [2, 3]: approximately 2.5
Compound: FALPQYLK [Binglangjiang buffalo casein peptide]

- α-glucosidase inhibition in vitro [2]: excellent
Compound: KLPGF [egg white protein-derived peptide]

- α-glucosidase inhibition in vitro [2]: excellent
- IC50 ratio of peptide to acarbose ([2]; wheat germ peptides): 2.70
Compound: LDNFR [wheat germ peptide]

- IC50 ratio of peptide to acarbose [2, 4]: 1.22
Compound: LSMSFPPF [peptide from Ginkgo biloba seed protein]

- IC50 ratio of peptide to acarbose [2, 3]: approximately 2.5
Compound: RNAVPITPTLNR [Binglangjiang buffalo casein peptide]

- α-glucosidase inhibition in vitro [2]: excellent
Compound: RVPSLM [egg white protein-derived peptide]

- α-glucosidase inhibition in vitro [2]: excellent
Compound: TTGGKGGK [black bean protein-derived peptide]
